Laboratory results published in article PMC2651907, “ARC (NSC 188491) has identical activity to Sangivamycin (NSC 65346) including inhibition of both P-TEFb and PKC” (2009).

Biological target: T1, P-TEFb (cdk9/cyclin T1) (Homo sapiens, UniProt P50750)
T1 construct: recombinant P-TEFb (cdk9/cyclin T1); with cyclin T1
Experiment: […]-ATP kinase assay with PDKtide, recombinant P-TEFb
Assay type: biochemical

T1 sequence (P50750 whole entry): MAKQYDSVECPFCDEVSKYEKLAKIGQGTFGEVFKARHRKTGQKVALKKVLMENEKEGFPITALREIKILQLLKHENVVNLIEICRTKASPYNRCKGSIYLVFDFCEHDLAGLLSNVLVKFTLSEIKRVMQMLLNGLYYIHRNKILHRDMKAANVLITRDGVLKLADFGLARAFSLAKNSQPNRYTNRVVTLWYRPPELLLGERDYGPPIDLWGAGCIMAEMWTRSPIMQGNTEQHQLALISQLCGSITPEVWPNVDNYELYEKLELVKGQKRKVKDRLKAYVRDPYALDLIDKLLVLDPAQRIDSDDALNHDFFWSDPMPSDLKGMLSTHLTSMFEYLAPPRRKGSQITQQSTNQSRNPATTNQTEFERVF
T1 sequence (O60563 whole entry partner): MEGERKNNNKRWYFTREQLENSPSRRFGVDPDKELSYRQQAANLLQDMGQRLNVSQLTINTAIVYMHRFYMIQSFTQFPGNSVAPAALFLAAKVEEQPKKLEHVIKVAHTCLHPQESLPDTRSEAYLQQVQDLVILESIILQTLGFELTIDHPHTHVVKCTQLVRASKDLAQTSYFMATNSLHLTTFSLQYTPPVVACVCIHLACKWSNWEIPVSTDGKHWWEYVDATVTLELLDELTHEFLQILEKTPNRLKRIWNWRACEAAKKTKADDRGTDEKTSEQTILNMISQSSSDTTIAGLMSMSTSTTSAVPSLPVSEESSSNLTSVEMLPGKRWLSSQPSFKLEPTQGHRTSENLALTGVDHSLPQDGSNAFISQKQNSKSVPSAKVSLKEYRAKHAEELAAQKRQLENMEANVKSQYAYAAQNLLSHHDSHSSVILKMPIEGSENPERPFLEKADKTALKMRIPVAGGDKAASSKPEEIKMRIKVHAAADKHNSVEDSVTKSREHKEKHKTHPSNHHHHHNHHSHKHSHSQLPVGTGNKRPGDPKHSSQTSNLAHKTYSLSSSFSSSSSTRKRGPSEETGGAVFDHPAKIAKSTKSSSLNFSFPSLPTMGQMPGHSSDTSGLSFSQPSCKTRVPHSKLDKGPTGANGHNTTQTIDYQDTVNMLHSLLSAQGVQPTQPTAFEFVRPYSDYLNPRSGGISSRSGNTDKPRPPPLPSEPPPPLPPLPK

Structure (SMILES)	32P-ATP kinase assay with PDKtide, recombinant P-TEFb
NNc1c(C(N)=O)c2c(N)ncnc2n1[C@@H]1O[C@H](CO)[C@@H](O)[C@H]1O [ARC, 4-amino-6-hydrazino-7-β-d-ribofuranosyl-7H-pyrrolo-(2,3-d)-pyrimidine-5-carboxamide]	ARC sangivamycin and toyocamycin prevent recombinant P-TEFb from phosphorylating substrate peptide (Fig. 4E)
NC(=O)c1cn([C@@H]2O[C@H](CO)[C@@H](O)[C@H]2O)c2ncnc(N)c12 [sangivamycin]	ARC sangivamycin and toyocamycin prevent recombinant P-TEFb from phosphorylating substrate peptide (Fig. 4E)
N#Cc1cn([C@@H]2O[C@H](CO)[C@@H](O)[C@H]2O)c2ncnc(N)c12 [toyocamycin]	ARC sangivamycin and toyocamycin prevent recombinant P-TEFb from phosphorylating substrate peptide (Fig. 4E)
